Assay results as given in patent US9833510B2, “Modified release solid or semi-solid dosage forms” (Johnson & Johnson Consumer Inc., priority 2007, dated 2017).
Counter-ions that a name gives are not always drawn.

How the values were obtained:
[1] = typical duration of action (period of therapeutic effect) of an immediate release dose, from product labeling; format: in vivo; conditions: for ATDAIRD (average therapeutic duration of action of an effective immediate release dose): average of typical duration range; for ATDAIRD: as restated, unit not given
From the text: As used herein, “ATDAIRD” shall mean the average therapeutic duration of action of an effective immediate release dose” of a particular active ingredient. […] The therapeutic duration of action of a particular active ingredient can readily be determined from the dosing instructions in the labeling for immediate release products containing that particular active ingredient.

[2] = background statement; typically administered every 2 to 4 hours; cited from earlier work

Structure (SMILES) | ATDAIRD (average therapeutic duration of action of an effective immediate release dose) [1] [h] | therapeutically effective plasma concentration (duration) [2] | ATDAIRD [1]
CC(C)Cc1ccc(C(C)C(=O)O)cc1 (stereo not shown) [ibuprofen, 2-(4-isobutylphenyl)-propionic acid] | 5 |  | 
CC(C(=O)O)c1cccc(C(=O)c2ccccc2)c1 (stereo not shown) [ketoprofen] | 5 |  | 
COc1ccc2cc([C@H](C)C(=O)O)ccc2c1 [naproxen] | 10 |  | 
CNC[C@H](O)c1cccc(O)c1 [phenylephrine hydrochloride] |  | about 2.5 hours | 
CNC[C@H](O)c1cccc(O)c1 [phenylephrine, benzynemethanol, 3-hydroxy-α-[(methylamino)methyl]] | 3 |  | about 3
CN[C@@H](C)[C@@H](O)c1ccccc1 [psuedoephedrine] |  |  | about 3
